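Interpolation was linear, between the two tested concentrations surrounding the appropriate level; five concentrations were tested over 48 hours in 96-well plates. GI50: concentration for 50% inhibition of growth.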 Active and inactive are the calls of the source. Rule as the data show it: active = GI50 up to about 1.1 µM and inactive = higher.
Columns and labels:
Assay in all cases: NCI anticancer screen, dose series, 48 h
[1] = system: UO-31
[2] = system: CCRF-CEM
[3] = system: OVCAR-3
[4] = system: SNB-75
[5] = system: NCI-H460
[6] = system: HOP-62
[7] = system: HT-29
[8] = system: NCI-H226
[9] = system: LXFL 529
[10] = system: M19-MEL
[11] = system: SW-620
[12] = system: SK-OV-3
[13] = system: NCI-H522
[14] = system: UACC-62
[15] = system: COLO 205
[16] = system: DLD-1
[17] = system: A549
[18] = system: HOP-18
[19] = system: SK-MEL-28
[20] = system: SF-295
[21] = system: A498
[22] = system: TK-10
[23] = system: OVCAR-5
[24] = system: SF-268
[25] = system: U-251
[26] = system: ACHN
[27] = system: HCT-116
[28] = system: OVCAR-8
[29] = system: SF-539
[30] = system: NCI-H23
[31] = system: KM12
[32] = system: SNB-19
[33] = system: HL-60
[34] = system: SK-MEL-5
[35] = system: IGROV-1
[36] = system: UACC-257
[37] = system: HCC 2998
[38] = system: K562
[39] = system: HOP-92

Measured: GI50

Nc1c(C(=O)N/N=C/c2ccc(Cl)cc2)sc(=S)n1-c1ccccc1
inactive: [1] > 100 µM | [2] 22.3 µM | [3] > 100 µM | [4] 84.7 µM | [5] 89.1 µM | [6] > 100 µM | [7] > 100 µM | [8] > 100 µM | [9] > 100 µM | [10] > 100 µM | [11] > 100 µM | [12] > 100 µM | [13] 31.6 µM | [14] > 100 µM | [15] > 100 µM | [16] > 100 µM | [17] > 100 µM | [18] > 100 µM | [19] 41.9 µM | [20] > 100 µM | [21] > 100 µM | [22] > 100 µM | [23] > 100 µM | [24] 40.8 µM | [25] > 10 µM | [26] > 100 µM | [27] > 100 µM | [28] > 100 µM | [29] 62.8 µM | [30] > 100 µM | [31] > 100 µM | [32] > 100 µM | [33] > 100 µM | [34] 58.2 µM | [35] > 100 µM | [36] > 100 µM | [37] > 100 µM | [38] 4.09 µM | [39] > 100 µM

From ChEMBL document CHEMBL1201862, “PubChem BioAssay data set” (2004)
